Data reported in ChEMBL document CHEMBL1156733, “Structure-activity relationship studies on a series of piperazinebenzylalcohols and their ketone and amine analogs as melanocortin-4 receptor ligands” (Bioorg Med Chem Lett, 2008).

Experiments:
[1] = target: Melanocortin receptor 5 (Homo sapiens, UniProt P33032); test: Binding affinity to MC5 receptor
[2] = Metabolic stability assessed as intrinsic clearance in human liver microsomes; assay type: ADME, Microsome
[3] = Half life in rat at 5 mg/kg, iv; assay type: ADME, organism-based; design: dose 5 mg/kg, route intravenous; conditions: in vivo
[4] = Ratio of drug level in brain to plasma in rat at 5 mg/kg, iv after 1 hr; assay type: ADME, organism-based; design: dose 5 mg/kg, route intravenous
[5] = Volume of distribution in rat at 5 mg/kg, iv; assay type: ADME, organism-based; design: dose 5 mg/kg, route intravenous; conditions: in vivo
[6] = Lipophilicity, log D of the compound; assay type: physicochemical; conditions: octanol/water
[7] = target: Melanocortin receptor 3 (Homo sapiens, UniProt P41968); test: Binding affinity to MC3 receptor
Sequence of Melanocortin receptor 3 (P41968 whole entry): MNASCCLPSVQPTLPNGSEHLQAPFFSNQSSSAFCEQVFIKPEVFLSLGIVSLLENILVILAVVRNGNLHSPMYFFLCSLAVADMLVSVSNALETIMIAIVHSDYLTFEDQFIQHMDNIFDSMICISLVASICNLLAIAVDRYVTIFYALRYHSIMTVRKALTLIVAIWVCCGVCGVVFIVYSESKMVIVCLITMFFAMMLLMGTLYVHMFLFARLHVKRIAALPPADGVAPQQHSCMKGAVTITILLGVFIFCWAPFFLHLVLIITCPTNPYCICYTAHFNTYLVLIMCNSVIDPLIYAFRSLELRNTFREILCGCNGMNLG

[8] = tested on: Brain; test: Drug level in rat brain rat at 5 mg/kg, iv; assay type: ADME, organism-based; design: dose 5 mg/kg, route intravenous; conditions: in vivo
[9] = Plasma clearance in rat at 5 mg/kg, iv; assay type: ADME, organism-based; design: dose 5 mg/kg, route intravenous
[10] = AUC in rat at 10 mg/kg, po; assay type: ADME, organism-based; design: dose 10 mg/kg, route oral; conditions: plasma
[11] = target: T1, Melanocortin receptor 4 (Homo sapiens, UniProt P32245)
T1 sequence (P32245 whole entry): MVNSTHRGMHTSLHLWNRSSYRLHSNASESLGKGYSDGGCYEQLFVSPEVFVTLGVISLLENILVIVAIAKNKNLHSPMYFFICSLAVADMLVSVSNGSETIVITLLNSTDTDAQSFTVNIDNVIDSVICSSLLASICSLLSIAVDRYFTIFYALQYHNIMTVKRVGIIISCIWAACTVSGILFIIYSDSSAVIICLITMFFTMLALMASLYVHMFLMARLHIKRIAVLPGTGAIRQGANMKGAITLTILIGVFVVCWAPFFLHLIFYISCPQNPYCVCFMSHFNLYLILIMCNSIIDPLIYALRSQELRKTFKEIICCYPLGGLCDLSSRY
Description: Binding affinity to human MC4 receptor

[12] = Oral bioavailability in rat at 10 mg/kg; assay type: ADME, organism-based; conditions: in vivo
[13] = target: T1, Melanocortin receptor 4; test: Antagonist activity at human MC4 receptor expressed in cells assessed as inhibition of alpha-MSH-stimulated cAMP production; assay type: functional, cell-based

Sequence of Melanocortin receptor 5 (P33032 whole entry): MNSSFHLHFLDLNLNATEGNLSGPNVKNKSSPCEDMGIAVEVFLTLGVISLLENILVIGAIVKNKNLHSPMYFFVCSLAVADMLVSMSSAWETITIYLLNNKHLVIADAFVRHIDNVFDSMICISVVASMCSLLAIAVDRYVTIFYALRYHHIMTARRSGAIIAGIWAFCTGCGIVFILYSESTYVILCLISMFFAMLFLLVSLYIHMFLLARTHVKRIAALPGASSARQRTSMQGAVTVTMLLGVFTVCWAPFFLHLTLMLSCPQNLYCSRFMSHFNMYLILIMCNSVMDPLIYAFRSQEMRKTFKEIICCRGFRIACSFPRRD

SMILES: CC(C)CC(O)c1ccccc1N1CCN(C(=O)[C@@H](Cc2ccc(Cl)cc2Cl)NC(=O)CCN)CC1 (stereo partly drawn)
- Ki [1]: 970 nM
- CLint scaled [2]: 14.7 mL/min/kg
- half-life [3]: 7.6 h
- Kp at 1 h [4]: 0.53
- Vd [5]: 42.3 L/kg
- logD [6]: 2.2
- Ki [7]: 1700 nM
- Drug uptake [8]: 117 ng/g
- clearance [9]: 64.5 mL/min/kg
- AUC [10]: 30 ng·h/mL
- Ki [11]: 8.1 nM
- bioavailability [12]: 1.2%
- IC50 [13]: 260 nM
